B1: FRP3: Wnt inhibitor, secreted frizzled-related protein class (protein, UniProt Q92765 33-325, looked up)
Secreted frizzled-related …: AACEPVRIPLCKSLPWNMTKMPNHLHHSTQANAILAIEQFEGLLGTHCSPDLLFFLCAMYAPICTIDFQHEPIKPCKSVCERARQGCEPILIKYRHSWPENLACEELPVYDRGVCISPEAIVTADGADFPMDSSNGNCRGASSERCKCKPIRATQKTYFRNNYNYVIRAKVKEIKTKCHDVTAVVEVKEILKSSLVNIPRDTVNLYTSSGCLCPPLNVNEEYIIMGYEDEERSRLLLVEGSIAEKWKDRLGKKVKRWDMKLRHLGLSKSDSSNSDSTQSQKSGRNSNPRQARN

Key:
[1] = tested on: unfractionated adult cardiac cells; test: Viable cell count, unfractionated adult cardiac cells; assay type: cell-based, mouse; conditions: unfractionated (whole heart) preparations, 3-4 days culture; recombinant Wnt3A at 50 ng/ml; FIGS. 24, 25a
Method: (§1) Whole hearts were obtained from adult mice (greater than 5 weeks of age). Cardiac tissue was minced and washed three times to remove blood. Cardiac cells were dissociated with pancreatin and collagenase for 15 minutes at 37° C. and washed. Following dissociation the unfractionated cells were either plated, or fractionated into a Sca1+ and Sca1− population prior to plating. These three cardiac cell populations (unfractionated cell preparation; Sca1+cell preparation; Sca1− cell preparation) were cultured in the presence of various Wnt-related compositions. Specifically, the cardiac cell preparations were cultured for 3-4 days in either L-cell conditioned medium alone; LWW60 conditioned medium; or culture medium containing purified Wnt3A protein. Following 3-4 days in culture, the cardiac cells were washed with PBS and trypsinized, and viable cells were counted.

beta-catenin = test: Nuclear beta-catenin assay in rat neonatal cardiomyocytes; assay type: cell-based; conditions: recombinant mouse Wnt protein 25 ng/ml-100 ng/ml, 16 hours; FIG. 23
Source text: We have used a nuclear beta-catenin assay to readily identify Wnt-related polypeptides that promote Wnt signaling via the canonical Wnt signaling pathway in cardiac cells. Specifically, and by way of example, we conducted a nuclear beta-catenin assay in rat neonatal cardiomyocytes to identify Wnt-related polypeptides that promote Wnt signaling via the canonical Wnt signaling pathway in cardiomyocytes. Such an assay conducted in neonatal or adult cardiac cells including, but not limited to, cardiomyocytes can be used to identify candidate agents that are capable of promoting Wnt signaling via the canonical Wnt signaling pathway in cardiac cells.
Briefly, neonatal cardiomyocytes were prepared and plated as outlined in detail above. Cells were washed two times with serum-free medium and were incubated in medium containing either a recombinant Wnt-related polypeptide, or some control factor. Cells were incubated for 16 hours, were fixed in 4% Formaldehye for 10 minuntes at room temperature, and were permeabilized with 0.2% Triton X-100 for 5 minutes. […] Although beta-catenin is not typically detectable by immunocytochemistry in the absence of active Wnt signaling, the nuclei were counterstained with 4′,6-diamidino-2-phenylindole (DAPI) to specifically confirm that the detected beta-catenin expression was localized to the nucleus. […]
Neonatal cardiomyocytes were cultured under one of the following conditions: medium alone (negative control), 10 mM LiCl, 2% fetal calf serum (FCS), 10% fetal calf serum (FCS), 25 ng/ml recombinant mouse Wnt5A (Catalog# 645-WN/CF), 50 ng/ml recombinant mouse Wnt5A (Catalog# 645-WN/CF), 100 ng/ml recombinant mouse Wnt5A (Catalog# 645-WN/CF), 25 ng/ml recombinant mouse Wnt3A (Catalog # 1324-WN/CF), 50 ng/ml recombinant mouse Wnt3A (Catalog # 1324-WN/CF), or 100 ng/ml recombinant mouse Wnt3A (Catalog # 1324-WN/CF). Following culture under one of the foregoing conditions, cells were analyzed by immunocytochemistry for expression of beta-catenin protein, and nuclear localization was verified by counterstaining the cells with DAPI. […]

[2] = tested on: neonatal rat cardiomyocytes; test: Neonatal rat cardiomyocyte proliferation, DNA synthesis by BrdU incorporation; assay type: cell-based
Method: Neonatal rat cardiomyocytes were isolated from postnatal day 2 Wistar rat pups. Rat pups were anesthetized by hypothermia in ice water for 10 min and euthanized by decapitation. Hearts were isolated and placed in PBS-G (KCl 2 g/L; KH2PO4 2 g/L; NaCl 80 g/L; Na2HPO4.7H20 21.6 g/L; D-glucose 10 g/L) on ice. The atria were removed and ventricles were washed in PBS-G and cut into pieces smaller than 2 millimeters. PBS-G containing 119.6 units/ml collagenase type 2 and 0.2 mg/ml pancreatin was warmed to 37° C. Amounts of collagenase were adjusted for batch variations in units/mg activity. Ventricles were dissociated in collagenase/pancreatin solution for 15 minutes on a rotator at 37° C. Tissue was dispersed gently by pipetting and allowed to settle for 5 min at room temperature. Cell suspension from first dissociation was discarded and replaced with fresh collagenase/pancreatin solution, and incubated at 37° C. for 15 minutes on an orbital shaker. Tissue was again dispersed and allowed to settle. The cell supension was transferred to a new tube and incubated an additional 5 min at 37° C., and the digestion was stopped by addition of an equal volume of DMEM/20% NCS and stored on ice. Digestion of the ventricular tissue was repeated 3 additional times and supernatants were collected and stored on ice in equal volumes of DMEM/20% NCS.
Cells from all the fractions were collected at 200 RCF for 6 min at room temperature. Cell pellets were resuspended in 2 ml ADS buffer (6.8 g/L NaCl, 0.4 g/L KCl, 1.0 g/L D-glucose, 1.5 g/L NaH2PO4, 4.75 g/L HEPES, 0.1 MgSO4.7H2O). One ml of cell suspension was applied to two Percoll gradients set up in the following manner. The top Percoll gradient (density 1.059 g/ml) was generated by mixing Percoll stock with ADS buffer in a 9:11 ratio, and the bottom Percoll gradient (density 1.082 g/ml) was made by mixing Percoll stock and ADS buffer in a 13:7 ratio. Four ml Top Percoll was added to a 15 ml conical tube, and three ml Bottom Percoll was laid below it by placing a pipet tip at the bottom of the tube, then carefully withdrawing it as the solution was delivered. The gradients were centrifuged at 3000 rpm for 30 consecutive minutes at room temperature. Cardiac non-myocytes were located above the top percoll buffer while cardiac myocytes were located at the interface of the top and bottom percoll layers. Blood and undissociated tissue were found at the bottom of the tube. Cardiac myocytes were collected after the top percoll was aspirated, and resuspended in DMEM/10% FBS, then centrifuged at 200 RCF for 6 min. Pelleted myocytes were resuspended in plating medium containing DMEM with 25 mM HEPES, 5% horse serum, 4 mM glutamine, penicillin and streptomycin. Four volumes of DMEM/10% FBS were added and the cell suspension was passed through a 40 uM cell strainer. Cells were pre-plated in 10 cm tissue culture plates for 1 hour at 37° C. Unattached cells were collected from the medium and centrifuged at 200 RCF for 6 min. Pelleted myocytes were resuspended in plating medium containing 10 uM AraC at a density of 100000 cells/ml and 200 ul/well were distributed into 96 well plates which had previously been coated with 0.1% gelatin/12.5 ug/ml fibronectin at 37° C. for more than 4 hours. Plated cells were grown for at least 48 hours at 37° C. prior to use in further experiments.
Briefly, the experiments summarized in FIG. 15 and FIG. 16 were conducted as follows. Neonatal rat cardiomyocytes were prepared and cultured as outlined in example 1. […]

β-catenin = β-catenin stabilization by immunocytochemistry in neonatal rat cardiomyocytes; assay type: cell-based; conditions: 48 hours in neonatal base medium; recombinant Wnt3A 167 ng/ml or 500 ng/ml, or serum; FIG. 19
Method: Briefly, neonatal rat cardiomyocytes were treated with either serum or with recombinant Wnt3A (e.g., 167 ng/ml or 500 ng/ml) in neonatal base medium for 48 hours. The treated cells were fixed, permeablilized with 0.5% Triton-X-100 for 15 minutes, and blocked in 5% goat serum in PBS-T for one hour. Mouse anti-β-catenin antibody (BD-Pharmingen) diluted 1:250 were incubated on cells for one hour. Cells were washed 3 times in PBS-T and incubated one hour in Alexa 594 goat anti-mouse antibody (Molecular Probes) at a dilution of 1:200.

[3] = tested on: one or more non-cardiac cells types; conditions: cited from earlier work
Sca1+ cell preparation = test: Viable cell count, Sca1+ adult cardiac cell preparation; assay type: cell-based, mouse; conditions: Sca1+ cell preparations, 3-4 days culture; recombinant Wnt3A at 50 ng/ml; FIG. 25a
Method: as §1

[4] = tested on: Wnt3A induced cardiomyocyte proliferation; test: Wnt antagonists co-administered with Wnt3A-L-cell supernatant, cardiomyocyte proliferation; assay type: cell-based, rat; conditions: 100 ng/ml of the Wnt inhibitor; FIG. 18
Method: To confirm that Wnt3A was responsible for the stimulation of cardiomyocyte proliferation observed in FIG. 17, we co-administered supernatant from Wnt3A expressing mouse L-cells and the Wnt antagonist dkk (recombinant dkk obtained from R&D Systems).
Nevertheless, the inhibition of Wnt3A induced cardiomyocyte proliferation by dkk supports the conclusion that Wnt3A is the active cardiomyocyte proliferative factor in the conditioned medium.
The experiments were conducted and analyzed as detailed above in examples 2 and 3.

| Molecule | number of viable cells [1] | beta-catenin nuclear localization (percentage of cells with nuclear beta-catenin staining) (beta-catenin) | cardiomyocyte proliferation level compared with serum ([2]; higher doses of Wnt3A, FIG. 16) | cardiomyocyte proliferation ([2]; recombinant Wnt3A 150, 50 or 17 ng/ml, 48 hours, FIG. 22) | cardiomyocyte proliferation, dilution series ([2]; recombinant Wnt3A dilution series, FIG. 16) | cardiomyocyte proliferation, as measured by incorporation of BrdU ([2]; recombinant mouse Wnt3A 0.06, 0.4, 2.3, 14, 83 and 500 ng/ml, FIG. 15) | stabilization of β-catenin (increased detection and nuclear localization), Wnt signaling (β-catenin) | Wnt signaling pathway shown in one or more non-cardiac cell types [3] | number of viable cells (Sca1+ cell preparation) | abolition of Wnt3A induced cardiomyocyte proliferation [4] |
| --- | --- | --- | --- | --- | --- | --- | --- | --- | --- | --- |
| Wnt3A | also increased the number of viable cells | promoted beta-catenin nuclear localization | comparable to serum | promoted cardiomyocyte proliferation | promoted cardiomyocyte proliferation in a dose dependent manner | statistically significant, dose dependent increase in cardiomyocyte proliferation | resulted in stabilization of β-catenin | signal via the canonical pathway | also increased the number of viable cells | – |
| B1 | – | – | – | – | – | – | – | – | – | did not |
